Patent US12527753B2, “Cysteamine for the treatment, mitigation and prevention of coronaviral, e.g., SARS-CoV-2, infections” (The Regents of the University of Michigan, priority 2020, dated 2026)

Test system: SARS-CoV-2 Variants Alpha, Beta, Gamma and Delta
Assay: In vitro activity against SARS-CoV-2 variants (pooled statements)

With 2-aminoethanethiol [cysteamine] the “inactivation of the virus in tissue culture” value (10 mM solution, contingent on time of exposure and concentration) was 85-100% and the “inactivation of the variants” value (10 mM, 15-90 minutes exposure) was “near complete inactivation”.
